Measured values taken from ChEMBL document CHEMBL3808353, “Targeting the Follicle Stimulating Hormone Receptor (FSHR) To Treat Fertility Disorders” (ACS Med Chem Lett, 2016).

What was measured:
[1] = molecular target: T1, Follicle-stimulating hormone receptor (Homo sapiens, UniProt P23945); experiment: Positive allosteric modulation of human FSHR expressed in rat granulosa cells assessed as FSH-induced estradiol production after 72 hrs by radioimmunossay; assay type: cell-based
T1 sequence (P23945 whole entry): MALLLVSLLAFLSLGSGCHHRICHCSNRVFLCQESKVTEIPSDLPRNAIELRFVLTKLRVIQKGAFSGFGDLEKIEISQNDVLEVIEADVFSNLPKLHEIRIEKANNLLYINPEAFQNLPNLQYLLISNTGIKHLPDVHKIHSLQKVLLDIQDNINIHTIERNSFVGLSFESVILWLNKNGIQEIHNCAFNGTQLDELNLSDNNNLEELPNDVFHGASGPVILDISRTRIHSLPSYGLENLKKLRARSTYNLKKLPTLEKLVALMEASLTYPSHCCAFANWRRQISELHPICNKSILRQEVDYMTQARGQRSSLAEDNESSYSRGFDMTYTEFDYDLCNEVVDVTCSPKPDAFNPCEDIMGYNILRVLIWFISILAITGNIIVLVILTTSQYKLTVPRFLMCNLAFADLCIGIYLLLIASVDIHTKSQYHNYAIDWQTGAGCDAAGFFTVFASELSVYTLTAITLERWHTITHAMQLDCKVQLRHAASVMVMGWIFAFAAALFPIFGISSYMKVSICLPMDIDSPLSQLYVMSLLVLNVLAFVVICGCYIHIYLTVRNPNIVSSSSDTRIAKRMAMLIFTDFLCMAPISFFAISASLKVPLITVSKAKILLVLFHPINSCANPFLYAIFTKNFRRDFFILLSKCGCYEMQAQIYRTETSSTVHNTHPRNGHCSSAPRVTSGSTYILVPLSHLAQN

[2] = molecular target: T1, Follicle-stimulating hormone receptor; experiment: Positive allosteric modulation of FSHR (unknown origin) expressed in CHO cells assessed as FSH-induced cAMP accumulation incubated for 1 hr by HTRF assay; assay type: functional, cell-based

| EC50 [1] | EC50 [2] | Structure (SMILES) |
| --- | --- | --- |
| > 1 µM | < 0.1 µM | Cc1ccccc1N1CCN(c2ccc(C(=O)NCCCN3CCCC3=O)cc2NC(=O)c2ccco2)CC1 |
|  | < 0.1 µM | Cc1ccccc1N1CCN(c2ccc(C(=O)N[C@H]3CCC[C@H](O)C3)cc2NC(=O)c2coc(C3CC3)n2)CC1 |
| 0.1 µM | < 0.1 µM | Cc1ccccc1N1CCN(c2ccc(C(=O)NCCCN3CCCC3=O)cc2NC(=O)c2coc(C3CC3)n2)CC1 |
|  | < 0.1 µM | C=CCNC(=O)NCCCNC(=O)c1ccc(N2CCN(c3ccccc3C)CC2)c(NC(=O)c2ccco2)c1 |
| 0.1 µM | < 0.1 µM | Cc1ccccc1N1CCN(c2ccc(C(=O)NCCCc3nn[nH]n3)cc2NC(=O)c2coc(C3CC3)n2)CC1 |
| 0.1 µM | 0.1 µM | Cc1ccccc1N1CCN(c2ccc(C(=O)NCCCN3CCCC3=O)cc2NC(=O)c2ccc(F)cc2)CC1 |
